From patent US5525503A, “Signal transduction via CD28” (priority 1993, dated 1996)

What was measured:
CD28 signalling = conditions: cited from earlier work
PI 3-kinase = test: CD28-associated PI 3-kinase lipid kinase activity of CD28 mutants in transfected Cos-1 cells after anti-CD28 crosslinking (TLC, laser densitometry); format: cell-based; conditions: relative to wild type CD28
Excerpt: FIG. 8 is a photograph of TLC analysis of lipid products following CD28 crosslinking. Cos-1 cells were transfected with wild type CD28 (WT) (lane 2), Tyr-191 to Phe mutant (F191) (lane 3), Met-194 to Cys (C194) (lane 4), and Tyr-209 to Phe (F209) (lane 5). Transfected cells were then subjected to anti-CD28 crosslinking, immunoprecipitation and lipid kinase analysis. Non-transfected cells served as a negative control (lane 1), while immunoprecipitation with anti-p85 antibody served as a positive control (lane 6).
FIG. 9 is a bar graph showing relative autoradiographic intensities of PI-P spots detected in the TLC analysis shown in FIG. 8. Intensity was quantitated by laser densitometric scanning.
The lipid kinase reaction was carried out on beads using soybean phosphatidyl inositol liposomes and γ32P-ATP (20 μCi). Lipids were then extracted using chloroform and methanol (1:1) and separated by thin layer chromatography on a silica gel plate precoated with potassium oxalate using a basic system (chloroform, methanol, water, ammonium hydroxide (60:47:11.3:2), as described in Whitman et al., supra and Auger et al., supra. The corresponding TLC spots were cut, counted for Cherenkov counts and extracted with a solution containing methylamine, methanol and n-butanol (57.7 ml of 25% methylamine in water, 61.6 ml of methanol and 15.6 ml of n-butanol) for 1 h at 53° C. This method also results in the deacylation of lipids. The samples were dried under vacuum and reconstituted in water. […] The deacylated phospholipids were analyzed on a Beckman HPLC system using an ion exchange column and a gradient of NH4 HPO4. ^3 H-PI-4P and adenosine diphosphate were used as internal standards.
Amino acid residues at positions Tyr-191, Met-194 and Tyr-209 were mutated using a site-directed mutagenesis system from Promega (Madison, Wis.). […] Cells were assessed for cell surface expression of CD28 by fluorescence-activated cell sorting (FACS) (EPICS, Coulter Immunology, Hialeah, Fla.). […]

[1] = biological target: association of PI 3-kinase with CD28 (Homo sapiens, UniProt P27986); test: Peptide competition: displacement of PI 3-kinase from CD28 (anti-CD28 immunoprecipitation, anti-p85 immunoblotting); format: binding; conditions: peptide 10-50 μM; longer exposure of autoradiograph
association of PI 3-kinase with CD28, sequence (P27986 whole entry): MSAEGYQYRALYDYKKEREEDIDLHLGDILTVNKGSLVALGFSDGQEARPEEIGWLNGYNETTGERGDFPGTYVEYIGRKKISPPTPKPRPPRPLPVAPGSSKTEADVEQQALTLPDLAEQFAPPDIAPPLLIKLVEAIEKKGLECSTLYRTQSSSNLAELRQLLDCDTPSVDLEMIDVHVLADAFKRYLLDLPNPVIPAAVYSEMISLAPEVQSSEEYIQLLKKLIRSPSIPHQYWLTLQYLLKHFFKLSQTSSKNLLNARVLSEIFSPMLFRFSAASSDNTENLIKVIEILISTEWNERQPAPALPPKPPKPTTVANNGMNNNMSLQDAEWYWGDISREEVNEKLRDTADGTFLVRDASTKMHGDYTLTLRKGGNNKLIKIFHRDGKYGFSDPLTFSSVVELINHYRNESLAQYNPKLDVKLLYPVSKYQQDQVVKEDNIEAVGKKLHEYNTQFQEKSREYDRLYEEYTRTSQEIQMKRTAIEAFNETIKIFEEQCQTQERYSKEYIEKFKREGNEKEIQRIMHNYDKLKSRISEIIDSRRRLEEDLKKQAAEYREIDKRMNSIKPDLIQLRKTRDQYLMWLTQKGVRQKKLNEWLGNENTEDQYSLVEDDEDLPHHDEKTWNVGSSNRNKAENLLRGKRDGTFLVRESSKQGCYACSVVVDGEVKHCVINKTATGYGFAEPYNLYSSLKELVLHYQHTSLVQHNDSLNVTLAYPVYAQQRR

Compound	sensitivity of CD28 signalling to the reagent (CD28 signalling)	effect of CD28 mutation on associated PI 3-kinase (TLC, in words) (PI 3-kinase)	also measured
cholera toxin	resistant	–	–
F209: CD28 with distal Tyr-209 mutated to Phe, control mutant	–	no effect relative to the wild type control	–
CSCC[C@H](NC(=O)[C@@H]1CCCN1C(=O)[C@H](CCSC)NC(=O)[C@H](Cc1ccc(OP(=O)(O)O)cc1)NC(=O)[C@H](CCC(=O)O)NC(=O)[C@H](CCC(=O)O)NC(=O)[C@@H](N)CCC(=O)O)C(=O)N[C@@H](CCC(=O)O)C(=O)N[C@@H](CC(=O)O)C(=O)N[C@@H](CC(C)C)C(=O)N[C@@H](Cc1ccc(O)cc1)C(=O)N[C@@H](CC(C)C)C(=O)O [Glu-Glu-Glu-Tyr-Met-Pro-Met-Glu-Asp-Leu-Tyr-Leu]	–	–	reduction of the level of CD28-associated p85 PI 3-kinase [1]: 60-80%
C194: CD28 with Met-194 mutated to Cys by site-directed mutagenesis	–	partial effect in reducing the level of associated kinase	reduction of CD28-associated PI 3-kinase activity (laser densitometry of PI-P spots) (PI 3-kinase): approximately 40%
C=CC[C@@H]1/C=C(\C)C[C@H](C)C[C@H](OC)[C@H]2O[C@@](O)(C(=O)C(=O)N3CCCC[C@H]3C(=O)O[C@H](/C(C)=C/[C@@H]3CC[C@@H](O)[C@H](OC)C3)[C@H](C)[C@@H](O)CC1=O)[C@H](C)C[C@@H]2OC [FK506]	resistant	–	–
